Test results published in ChEMBL document CHEMBL1201862, “PubChem BioAssay data set” (2004).
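Five compound concentrations were applied to cells in 96-well plates for 48 hours; endpoints were derived by simple linear interpolation of the resulting dose-response curve. The concentration for 50% growth inhibition is given as GI50.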 Active and inactive are the calls of the source. Rule as the data show it: active = GI50 up to about 1.1 µM and inactive = higher.

Assays:
Assay in all cases: NCI anticancer screen, dose series, 48 h
SR = system: SR
SK-MEL-2 = system: SK-MEL-2
SF-539 = system: SF-539
KM12 = system: KM12
SF-268 = system: SF-268
CCRF-CEM = system: CCRF-CEM
LOX IMVI = system: LOX IMVI
UACC-257 = system: UACC-257
HCC 2998 = system: HCC 2998
M14 = system: M14
SN12C = system: SN12C
EKVX = system: EKVX
HCT-116 = system: HCT-116
NCI-H460 = system: NCI-H460
OVCAR-4 = system: OVCAR-4
RXF 393 = system: RXF 393
U-251 = system: U-251
SK-MEL-5 = system: SK-MEL-5
SNB-19 = system: SNB-19
TK-10 = system: TK-10

| Compound | GI50 (SR) | GI50 (SK-MEL-2) | GI50 (SF-539) | GI50 (KM12) | GI50 (SF-268) | GI50 (CCRF-CEM) | GI50 (LOX IMVI) | GI50 (UACC-257) | GI50 (HCC 2998) | GI50 (M14) | GI50 (SN12C) | GI50 (EKVX) | GI50 (HCT-116) | GI50 (NCI-H460) | GI50 (OVCAR-4) | GI50 (RXF 393) | GI50 (U-251) | GI50 (SK-MEL-5) | GI50 (SNB-19) | GI50 (TK-10) |
| --- | --- | --- | --- | --- | --- | --- | --- | --- | --- | --- | --- | --- | --- | --- | --- | --- | --- | --- | --- | --- |
| CC12CCC(O)CC1CCC1C2CCC2(C)C(C(=O)CC(O)C(F)(F)F)CCC12 (stereo not given) | 0.289 µM (active) | 32.1 µM (inactive) | 35.2 µM (inactive) | 17.1 µM (inactive) | 33.7 µM (inactive) | 25.6 µM (inactive) | 7 µM (inactive) | 21.6 µM (inactive) | 21.6 µM (inactive) | 20.8 µM (inactive) | > 100 µM (inactive) | 40.4 µM (inactive) | 28.4 µM (inactive) | 11.7 µM (inactive) | > 100 µM (inactive) | 7.87 µM (inactive) | 26.2 µM (inactive) | 28.4 µM (inactive) | 24.9 µM (inactive) | 53.7 µM (inactive) |
| C=C(Nc1ccc(OC)cc1OC)C(=O)Cc1cccc[n+]1[O-] | > 100 µM (inactive) | > 100 µM (inactive) | > 100 µM (inactive) | > 100 µM (inactive) | > 100 µM (inactive) | > 100 µM (inactive) | > 100 µM (inactive) | > 100 µM (inactive) | > 100 µM (inactive) | > 100 µM (inactive) | > 100 µM (inactive) | > 100 µM (inactive) | > 100 µM (inactive) | > 100 µM (inactive) | > 100 µM (inactive) | > 100 µM (inactive) | > 100 µM (inactive) | > 100 µM (inactive) | > 100 µM (inactive) | > 100 µM (inactive) |
| CNNC(=NS(=O)(=O)c1cc(C#N)c(NNC)cc1S)NNC | > 10 µM (inactive) | > 10 µM (inactive) | > 10 µM (inactive) | > 10 µM (inactive) | > 10 µM (inactive) | > 10 µM (inactive) | > 10 µM (inactive) | > 10 µM (inactive) | > 10 µM (inactive) | > 10 µM (inactive) | > 10 µM (inactive) | > 10 µM (inactive) | > 10 µM (inactive) | > 10 µM (inactive) | > 10 µM (inactive) | > 10 µM (inactive) | > 10 µM (inactive) | > 10 µM (inactive) | > 10 µM (inactive) | > 10 µM (inactive) |
| Cc1cccc(C)c1NC(=O)C(=O)C1C(=O)N(c2ccccc2)N=C1N (stereo not given) | > 100 µM (inactive) | > 100 µM (inactive) | > 100 µM (inactive) | > 100 µM (inactive) | > 100 µM (inactive) | > 100 µM (inactive) | > 100 µM (inactive) | > 100 µM (inactive) | > 100 µM (inactive) | > 100 µM (inactive) | > 100 µM (inactive) | > 100 µM (inactive) | > 100 µM (inactive) | > 100 µM (inactive) | > 100 µM (inactive) | > 100 µM (inactive) | > 100 µM (inactive) | > 100 µM (inactive) | > 100 µM (inactive) | > 100 µM (inactive) |
| COc1cc2c(cc1O)CC[C@@H]1C2CC[C@@]2(C)C1CC[C@@H]2O (stereo not given in full) | 0.073 µM (active) | 1.32 µM (inactive) | 0.807 µM (active) | 4.43 µM (inactive) | 3.43 µM (inactive) | 0.689 µM (active) | 2.89 µM (inactive) | 11.2 µM (inactive) | 9.62 µM (inactive) | 0.91 µM (active) | 6.85 µM (inactive) | 6.17 µM (inactive) | 1.19 µM (inactive) | 1.96 µM (inactive) | 29.6 µM (inactive) | 6.24 µM (inactive) | 1.16 µM (inactive) | 1.35 µM (inactive) | 16.3 µM (inactive) | 14 µM (inactive) |
